Assay results reported in patent US5444056A, “Aminoalkoxyphenyl derivatives, process for their preparation and compositions containing them” (Sanofi, priority 1989, dated 1995).
Structures can show the parent of a compound that is named as a salt.

What was measured:
[1] = tested on: increase in blood pressure induced by epinephrine (anti-α effect); experiment: Anti-α effect: reduction of epinephrine-induced increase in blood pressure in anesthetized atropinized dog; assay type: in vivo; set-up: key: +: for a reduction <50%; ++: for a reduction ≥50%; +++: for an almost complete reduction
Procedure: The aim of this test is to determine the capacity of the compounds of the invention to reduce the increase in blood pressure induced by epinephrine (anti-αeffect) and the acceleration of the heart rate induced by isoprenaline (anti-βeffect) in the dog previously anesthetized with pentobarbital and atropinized. First, are determined for each dog the dose of epinephrine (between 3 and 10 μg/kg) which causes a reproducible increase in arterial blood pressure of about 133.10^2 Pa and the dose of isoprenaline (1 to 2 μg/kg) which causes a reproducible increase in the heart rate of about 70 beats/minute. The doses of epinephrine and isoprenaline thus determined are injected alternatively every ten minutes and after the two consecutive reference responses have been obtained, a quantity of the test compound is administered by the intravenous route. The percentage reduction of the hypertension caused by the test compound in comparison with the reference hypertension previously obtained (about 100 mm Hg) is recorded. In both cases, the results of the reduction in arterial pressure and heart rate are expressed as follows: […]

[2] = tested on: acceleration of the heart rate induced by isoprenaline (anti-β effect); experiment: Anti-β effect: reduction of isoprenaline-induced acceleration of the heart rate in anesthetized atropinized dog; assay type: in vivo; set-up: key to Anti-β effect: +: for a reduction <50%; ++: for a reduction ≥50%; +++: for an almost complete reduction
Procedure: The aim of this test is to determine the capacity of the compounds of the invention to reduce the increase in blood pressure induced by epinephrine (anti-αeffect) and the acceleration of the heart rate induced by isoprenaline (anti-βeffect) in the dog previously anesthetized with pentobarbital and atropinized.
First, are determined for each dog the dose of epinephrine (between 3 and 10 μg/kg) which causes a reproducible increase in arterial blood pressure of about 133.10^2 Pa and the dose of isoprenaline (1 to 2 μg/kg) which causes a reproducible increase in the heart rate of about 70 beats/minute. The doses of epinephrine and isoprenaline thus determined are injected alternatively every ten minutes and after the two consecutive reference responses have been obtained, a quantity of the test compound is administered by the intravenous route.
The percentage reduction of the acceleration of the heart rate caused by the test compound compared with the reference tachycardia previously measured (about 70 beats) is recorded.
In both cases, the results of the reduction in arterial pressure and heart rate are expressed as follows: […]

[3] = tested on: contractile response to potassium-induced depolarization on isolated rat aorta; experiment: Calcium inhibitory properties: antagonism of contractile response to potassium-induced depolarization on isolated rat aorta; set-up: species or system rat (male Wistar); settings: percent of maximal contraction before incubation, 60 min
Excerpt: It is well established that the depolarization of a smooth muscle membrane by potassium makes the latter permeable to extracellular calcium and induces muscle contraction. Consequently, the measurement of inhibition of the contractile response to depolarization by potassium or the measurement of relaxation of the tonic contraction on potassium depolarization can provide an evaluation of the potency of a compound as an inhibitor of the membrane permeability to Ca^++ ions. The technique used is the following: The aorta is removed from male Wistar rats weighing about 300 g and cut into strips approximately 40 mm long and 3 mm wide. These fragments are placed in a 25 ml isolated organ bath containing modified Krebs-bicarbonate solution (112 mM NaCL; 5 mM KCl; 25 mM NaHCO3; 1 mM KH2 PO4; 1.2 mM MgSO4; 2.5 mM CaCl2; 11.5 mM glucose, made up to 1000 ml with distilled water) maintained at 37° C. and through which a stream of carbon dioxide is passed. The preparation is connected to a force microsensor and the contractile response is recorded after amplification on a recorder. A tension of 2g is applied to the preparation. This latter is maintained in the modified Krebs-bicarbonate solution for 60 minutes, and then contractions are induced by replacing the Krebsbi-carbonate solution by a Krebs-potassium solution (17 mM NaCl; 100 mM KCl; 25 mM NaHCO3; 1 mM KH2 PO4; 1.2 mM MgSO4; 2.5 mM CaCl2; 11.5 mM glucose; made up to 1000 ml with distilled water). When the contractile response of the preparation has become reproducible, a given amount of the compound of the invention is introduced into the bath. Sixty minutes later a new spasm is induced by potassium depolarization. The results obtained on the aorta under investigation are then expressed in percent of the maximal contractional effect before incubation with the test substance. As examples, the following results were obtained, the compounds of formula (1) being in the form of the free base, the hydrochloride, oxalate or fumarate.

| Compound | % maximal contractional effect ([3]; 10^-8 M, 0.01 µM) | % maximal contractional effect ([3]; 10^-9 M, 0.001 µM) | % maximal contractional effect ([3]; 10^-7 M, 0.1 µM) | % maximal contractional effect ([3]; 10^-10 M, 0.0001 µM) | further results |
| --- | --- | --- | --- | --- | --- |
| 2-isopropyl 8-methyl 1-{4-[3-(6,7-dimethoxy 1,2,3,4-tetrahydro N-isoquinolin-2-yl)propoxy]benzenesulfonyl}indolizine hydrogen oxalate [Ex. 2] |  |  |  |  | Anti-α effect ([1]; intravenous, 0,065 mg/kg): +++; Anti-β effect ([2]; intravenous, 0,065 mg/kg): +++ |
| COc1ccc(CCN(C)CCCOc2ccc(S(=O)(=O)c3c(C(C)C)cn4ccccc34)cc2)cc1OC [C, reference compound] | 40,1% | 81,7% |  |  | Anti-α effect ([1]; intravenous, 0,1 mg/kg): +++; Anti-β effect ([2]; intravenous, 0,1 mg/kg): +++ |
| CCCCc1oc2ccc(Br)cc2c1S(=O)(=O)c1ccc(OCCCN(C)CCc2ccc(OC)c(OC)c2)cc1 [Ex. 8, 5-bromo 2-n-butyl 3-{4[3-(N-methyl N-3,4-dimethoxy-β-phenethylamino)propoxy]benzenesulfonyl}benzofuran hydrogen oxalate] |  |  | 79,4% |  | % maximal contractional effect ([3]; 10^-6 M, 1 µM): 61,5%; Anti-α effect ([1]; intravenous, 1,5 mg/kg): +++; Anti-β effect ([2]; intravenous, 1,5 mg/kg): +++ |
| COc1ccc(CCN(C)CCCOc2ccc(S(=O)(=O)c3c(C(C)C)c4ccccc4n3CCCN(C)CCc3ccc(OC)c(OC)c3)cc2)cc1OC [Ex. 10, 2-{4-[3-(N-methyl N-3,4-dimethoxy-β-phenethylamino)propoxy]benzenesulfonyl} 1-[3-(N-methyl N-3,4-dimethoxy-β-phenethylamino)propyl] 3-isopropyl indole dioxalate] | 90,2% |  | 78,9% |  | Anti-α effect ([1]; intravenous, 4,9 mg/kg): +++; Anti-β effect ([2]; intravenous, 4,9 mg/kg): +++ |
| COc1ccc(CCN(C)CCCOc2ccc(S(=O)(=O)c3c(C(C)C)cn4cccc(C)c34)cc2)cc1OC [Ex. 15, 2-isopropyl 8-methyl 1-{4-[3-(N-methyl N-3,4-dimethoxy-β-phenethylamino)propoxy]benzenesulfonyl}indolizine hydrogen oxalate] | 11,1% | 41,0% |  | 85,2% | Anti-α effect ([1]; intravenous, 0,013 mg/kg): ++ (for a reduction ≥50%); inhibition in vivo at 0.013 mg/kg ([2]; Canis lupus familiaris, intravenous, 0,013 mg/kg): < 50% |
| COc1ccc(CCN(C)CCCOc2ccc(S(=O)(=O)c3c(C(C)C)nn4c(C)cccc34)cc2)cc1OC [Ex. 50, 3-{4-[3-(N-methyl N-3,4-dimethoxy-β-phenethylamino)propoxy]benzenesulfonyl} 2-isopropyl 7-methyl pyrazolo[1,5-a]pyridine hydrogen oxalate] | 29,1% | 65,6% |  | 86,3% | Anti-α effect ([1]; intravenous, 0,13 mg/kg): +++; Anti-β effect ([2]; intravenous, 0,13 mg/kg): +++ |
| COc1ccc(CCN(C)CCCOc2ccc(S(=O)(=O)c3c(C(C)C)c4cccc(C)c4n3C)cc2)cc1OC [Ex. 55, 2-{4-[3-(N-methyl N-3,4-dimethoxy-β-phenethylamino)propoxy]benzenesulfonyl} 3-isopropyl 1,7-dimethyl indole hydrogen oxalate] | 56,4% | 79% | 45,8% | 85,7% | Anti-α effect ([1]; intravenous, 0,07 mg/kg): +++; Anti-β effect ([2]; intravenous, 0,07 mg/kg): +++ |
| COc1ccc2c(c1)c(C(C)C)c(S(=O)(=O)c1ccc(OCCCN(C)CCc3ccc(OC)c(OC)c3)cc1)n2C [Ex. 61, 2-{4-[3-(N-methyl N-3,4-dimethoxy-β-phenethylamino)propoxy]benzenesulfonyl} 3-isopropyl 5-methoxy 1-methyl indole hydrogen fumarate] | 31,2% | 71,4% | 15,7% | 89,5% | Anti-α effect ([1]; intravenous, 0,035 mg/kg): +++; inhibition in vivo at 0.035 mg/kg ([2]; Canis lupus familiaris, intravenous, 0,035 mg/kg): ≥ 50% |
| COc1ccc2[nH]c(S(=O)(=O)c3ccc(OCCCN(C)CCc4ccc(OC)c(OC)c4)cc3)c(C(C)C)c2c1 [Ex. 62, 2-{4-[3-(N-methyl N-3,4-dimethoxy-β-phenethylamino)propoxy]benzenesulfonyl} 3-isopropyl 5-methoxy indole hydrogen oxalate] | 48,7% | 93,7% | 37,1% | 90,3% | Anti-α effect ([1]; intravenous, 1 mg/kg): +++; inhibition in vivo at 1 mg/kg ([2]; Canis lupus familiaris, intravenous, 1 mg/kg): ≥ 50% |
| COc1ccc(CCN(C)CCCOc2ccc(S(=O)(=O)c3c(C(C)C)n(C)c4cccc(C)c34)cc2)cc1OC [Ex. 65, 3-{4-[3-(N-methyl N-3,4-dimethoxy-β-phenethylamino)propoxy]benzenesulfonyl} 2-isopropyl 1,4-dimethyl indole hydrogen oxalate] | 29,9% | 76,1% | 14,3% | 83,5% | Anti-α effect ([1]; intravenous, 0,1 mg/kg): +++; Anti-β effect ([2]; intravenous, 0,1 mg/kg): +++ |
| CCCCN(CCCC)CCCOc1ccc(S(=O)(=O)c2c(C(C)C)n(C)c3cccc(C)c23)cc1.O=C(O)C(=O)O [Ex. 66, 3-{4-[3-(di-n-butylamino)propoxy]benzenesulfonyl} 2-isopropyl 1,4-dimethyl indole hydrogen oxalate] | 37,1% | 83,1% | 7,1% |  | Anti-α effect ([1]; intravenous, 0,05 mg/kg): +++; Anti-β effect ([2]; intravenous, 0,05 mg/kg): +++ |
| COc1cc(CCN(C)CCCOc2ccc(S(=O)(=O)c3c(C(C)C)cn4cccc(C)c34)cc2)cc(OC)c1 [Ex. 76, 1-{4-[3-(N-methyl N-3,5-dimethoxy-β-phenethylamino)propoxy]benzenesulfonyl} 2-isopropyl 8-methyl indolizine] | 12,7% | 41,8% |  | 64,1% | Anti-α effect ([1]; intravenous, 0,013 mg/kg): +++; Anti-β effect ([2]; intravenous, 0,013 mg/kg): +++ |
